Assay: hydrolysis of the compound into its active (dissolved in water, followed by NMR)

CN(C)CCc1c[nH]c2cccc(OP(=O)(O)O)c12 [Psilocybin]
half-life: < 365 days
